Assay results from US11655308B2, “HM-3 fusion protein and application thereof” (TASLY BIOPHARMACEUTICALS CO., LTD., priority 2017, dated 2023).

Columns and labels:
[1] = test system: transgenic blood vessel fluorescent zebrafish; assay: In vivo anti-angiogenesis in zebrafish (SIVs area); parameters: area of SIVs: unit not given here; conditions: for inhibition rate of angiogenesis / area of SIVs: 24 h; for area of SIVs: normal control group 53193
Method: Experimental method: transgenic blood vessel fluorescent zebrafish was randomly selected and put into a six-well plate with 30 fish per well, and intravenously injected HM-3 polypeptide, TSL-1 fusion protein, TSL-2 fusion protein, TSL-3 fusion protein and TSL-4 fusion protein respectively in accordance with the dosage of 20 ng/tail and 66 ng/tail; the dosage was […] in Avastin positive control and the injection volume was 20 nL/tail; the zebrafish injected 20 nL/tail of buffer solution served as a solvent control group, and the zebrafish without any treatment served as a normal control group. 10 pieces of zebrafish were randomly selected from each group after processed for 24 h to observe the intestinal vessels of the transgenic zebrafish by a fluorescence microscope, as well as to take and maintain images. Image analysis was performed by Nikon MS-Elements D 3.10 to calculate the area (S) of SIVs (subintestinal vessel, SIV). The calculation formula of angiogenesis inhibition rate was as follows: Angiogenesis inhibition rate (%)=(1−S(Test sample group)/S(Normal control group))×100%
Statistical analysis was performed by variance analysis and Dunnett's T-test and the results were expressed as Mean±SD, where p<0.05 indicates a significant difference.

[2] = test system: mice splenic lymphocyte proliferation stimulated by ConA; format: cell-based
Method: Experimental method: mice orbit was by bloodletting to death, and immediately immersed in 75% ethanol for 5-10 min, and then the spleen was removed on a clean bench and placed in PBS. The spleen was placed on a sterile cell strainer (200 mesh) and ground with a syringe nozzle; during grinding process, PBS was added continuously; the slurry was collected and centrifuged (1000 rpm for 5 min), then cells were washed 3 times with Tris-ammonium chloride solution, and washed again with a medium, and then re-suspended in the medium. Finally, trypan blue living cell staining was performed on the cells, and the survival rate was more than 95%. The concentration of viable cells was adjusted to 2×10^6/mL. […] was added to each well of a 96-well plate, meanwhile, ConA (concanavalin to simulate splenocyte proliferation) and drugs were added to each well. Six duplicates were set in each group.
The 96-well plate was incubated for 48 h in a 5% CO2 incubator at 37° C. 5 mg/mL of MTT was added to the 96-well plate, 20 μL for each well, and then it was incubated continuously for 4 h in the incubator. The culture medium in the 96-well plate was discarded and 100 μL DMSO was added to each well and mixed gently. Absorbance was measured by a microplate reader at the wavelength of 570 nm and reference wavelength of 630 nm.
Proliferation inhibition rate (PI) was calculated according to formula:
[formula] wherein, Atest is the absorbance of dosing group, and Acontrol is the absorbance of negative control. Test results were expressed as mean±SD, and statistical T test was performed. *P<0.05 indicates significant difference, **P<0.01 indicates extremely significant difference. Based upon the results, the efficacy of the fusion protein against rheumatoid arthritis was screened.
In the P4 control group, TSL-4 fusion protein served as a control agent.

Rat chondrocyte = assay: Influence of TSL-4 on viability of chondrocytes (MTT); format: cell-based; parameters: key to MTT test value: absorbance at 570 nm (MTT)
Method: At the end of incubation according to the experimental plan, 10 μL of 5 mg/ml MTT was added to each experimental group based upon 1/10 of the cell culture volume, so that the cells were incubated with MTT in the incubator for 4 hours. Afterwards, supernatant was carefully discarded, and 200 μL of dimethyl sulfoxide (DMSO) was added for mixing well, then the absorbance was measured on a microplate reader at a test wavelength of 570 nm. Calculating formula of relative cell activity ratio (%): a mean value of the absorbance (per well) in the experimental group/the absorbance in the control group multiplies by 100%. […] The difference between each group was analyzed by Prism 7.0, and tested by one-way ANOVA. *P<0.05 means statistical difference, **P<0.01 means significant statistical difference, and […] means extremely significant statistical difference.
The concentration of TSL-4 should be selected within 0.1, 0.3, 1, 3, 9, 27 μM.
In early experiment, the TSL-4 at each concentration had no effect on cell viability, therefore, it was diluted to 0.23 μM from 29.3 μM according to a dilution ratio of 1:5 based upon the concentration (293 μM) of the primary TSL-4 solution.

## mIgG4-Fc-(GGGGS)3-HM-3 [TSL-4]
[1]; 20 ng/tail
  inhibiting effect on angiogenesis: significant inhibitory effect
[1]; 20 ng/tail iv
  inhibition rate of angiogenesis: 36%
  area of SIVs: 33869
[1]; 66 ng/tail iv
  inhibition rate of angiogenesis: 47%
  area of SIVs: 28297
[2]; ConA 5 μg/mL, 48 h, MTT, best of the tested concentrations
  optimal (best) inhibition rate of splenic lymphocyte proliferation: 63.3%
[2]; positive group Dexamethasone 50 μmol/L
  inhibition rate compared with the positive control group: higher than that of the positive control group
[2]; second round (Table 3)
  inhibition ratio of mice splenic lymphocyte proliferation relative to group ConA: enhanced significantly
Rat chondrocyte; 0.1 μM TSL-4, 24 h (Table 24, low-dose), 0 μM 1.23
  MTT test value: 1.26
Rat chondrocyte; 0.23 μM TSL-4, 24 h (Table 25), 0 μM 1.68
  MTT test value: 1.59
Rat chondrocyte; 0.3 μM TSL-4, 24 h (Table 24, low-dose), 0 μM 1.23
  MTT test value: 1.2
Rat chondrocyte; 1 μM TSL-4, 24 h (Table 23), 0 μM 1.43
  MTT test value: 1.59
Rat chondrocyte; 1 μM TSL-4, 24 h (Table 24, low-dose), 0 μM 1.23
  MTT test value: 1.15
Rat chondrocyte; 1 μM TSL-4, 48 h (Table 23), 0 μM 1.70
  MTT test value: 1.43
Rat chondrocyte; 1 μM TSL-4, 72 h (Table 23), 0 μM 1.51
  MTT test value: 1.61
Rat chondrocyte; 1.17 μM TSL-4, 24 h (Table 25), 0 μM 1.68
  MTT test value: 1.4
Rat chondrocyte; 3 μM TSL-4, 24 h (Table 23), 0 μM 1.43
  MTT test value: 1.67
Rat chondrocyte; 3 μM TSL-4, 24 h (Table 24, low-dose), 0 μM 1.23
  MTT test value: 1.08
Rat chondrocyte; 3 μM TSL-4, 48 h (Table 23), 0 μM 1.70
  MTT test value: 1.43
Rat chondrocyte; 3 μM TSL-4, 72 h (Table 23), 0 μM 1.51
  MTT test value: 1.52
Rat chondrocyte; 5.86 μM TSL-4, 24 h (Table 25), 0 μM 1.68
  MTT test value: 1.39
Rat chondrocyte; 9 μM TSL-4, 24 h (Table 23), 0 μM 1.43
  MTT test value: 1.72
Rat chondrocyte; 9 μM TSL-4, 48 h (Table 23), 0 μM 1.70
  MTT test value: 1.51
Rat chondrocyte; 9 μM TSL-4, 72 h (Table 23), 0 μM 1.51
  MTT test value: 1.57
Rat chondrocyte; 27 μM TSL-4, 24 h (Table 23), 0 μM 1.43
  MTT test value: 1.45
Rat chondrocyte; 27 μM TSL-4, 48 h (Table 23), 0 μM 1.70
  MTT test value: 1.30
Rat chondrocyte; 27 μM TSL-4, 72 h (Table 23), 0 μM 1.51
  MTT test value: 1.31
Rat chondrocyte; 29.3 μM TSL-4, 24 h (Table 25), 0 μM 1.68
  MTT test value: 1.24
Rat chondrocyte; 0.1-3 μM TSL-4, 24 h
  influence on cell viability: no significant difference
Rat chondrocyte; 0.23-29.3 μM TSL-4, 24 h
  influence on cell viability: no significant change in cell viability
Rat chondrocyte; 1-27 μM TSL-4, 24, 48 and 72 hours
  influence on cell viability: no significant influence on cell viability
